Laboratory results as given in PMC4514850, “A Novel TGR5 Activator WB403 Promotes GLP-1 Secretion and Preserves Pancreatic β-Cells in Type 2 Diabetic Mice” (PLoS ONE, 2015).
Entries after “also recorded” stand apart in the source; their conditions may differ.

Assays:
[1] = tested on: gallbladders of mice; test: gallbladder filling in normal mice; assay type: in vivo; details: 200 mg/kg ip, normal mice fasted overnight, gallbladders removed 30 min later, n = 10
Text: Fig 1 WB403 activated TGR5 and promoted active GLP-1 secretion. (A) WB403 stimulated hTGR5 in CRE-luciferase report system at the concentration range of 1–20 μmol/l. (B) WB403 stimulated hTGR5 specific cAMP accumulation at the concentration range of 1–50 μmol/l. n = 3. **p<0.01, ***p<0.001 vs. DMSO (+TGR5) group. (C) The hTGR5 targeted CRE-luciferase activity of WB403 and ZY403. […] (D) Effect of WB403 and ZY403 on gallbladders of mice. Normal mice were fasted overnight and treated with compounds (200 mg/kg) or vehicle (DMSO) by ip injection. Gallbladders (GB) were removed 30 min later and volumes measured then normalized to body weight (B.W.). n = 10. **p<0.01 vs. vehicle group. (E) Structure of WB403 and ZY403. WB403 promoted GLP-1 secretion in NCI-H716 cells (F), primary enterocytes (G), and MIN6 cells (H). n = 3. *p<0.05, **p<0.01, ***p<0.001 vs. vehicle group. (I) WB403 promoted GLP-1 in ICR mice. n = 5. **p<0.01 vs. vehicle group. Values represent mean ± SEM.

[2] = tested on: db/db mice; test: pancreas histology (H&E, IHC) of treated db/db mice; assay type: in vivo
Method: (§1) Analysis of islet cell mass was performed using conventional methods. In brief, mice were sacrificed by cervical dislocation. The body part of the pancreas was rapidly excised, fixed in 10% neutral buffered formalin solution for 24 h and embedded in paraffin, then sectioned at 5 μm ready for hematoxylin and eosin (H&E) staining and immunohistochemistry staining (IHC). The latter was carried out using rabbit anti-insulin polyclonal antibody (Cat. no. 4590, 1:600) and rabbit anti-glucagon monoclonal antibody (Cat. no. 8233s, 1:200) from Cell Signaling Technology.
(§2) Fig 5 WB403 preserved the mass of pancreatic β-cells and normal distribution of α and β-cells. (A) H&E staining of pancreas from db/db mice, and statistical result. Islets were sized by the Image J analysis software on alternated pancreatic sections spaced each by 100 μm. (B) Immunohistochemical analysis of pancreatic sections by anti-insulin antibody or anti-glucagon antibody. (C) H&E staining of pancreas from HFD/STZ mice, and statistical result. Results are representative islets from each group. 1–5 in the column graph on the right represents normal mice, diabetic mice treated with vehicle, WB403 50 mg/kg, WB403 100 mg/kg, sitagliptin 100 mg/kg respectively (n = 5). *p<0.05, **p<0.01, ***p<0.001 vs. diabetes-vehicle group.

[3] = tested on: HFD/STZ mice; test: pancreas histology (H&E) of treated HFD/STZ mice; assay type: in vivo; details: after 8-week treatment
Method: as §1, §2

[4] = molecular target: T1, hGPR40 (Homo sapiens, UniProt O14842); test: GPR40-dependent calcium mobilization in 293-GPR40 stable cells; assay type: cell-based; details: 5, 10, 50 μmol/l
T1 construct: expressed in transfected cells
Method: (§3) For human TGR5 luciferase (luc) assay, 293T cells were co-transfected with pCRE-luc, pTGR5 (kind gift from Prof. Johan Auwerx, Ecole Polytechnique Fédérale de Lausanne, Lausanne, Switzerland) and pRenilla (Promega, USA). WB403 was added 5 h later. Cells were harvested after 16 h and subjected to luciferase analysis on Lumistar Optima chemiluminescent detector (BMG labtech, Germany). For cAMP testing, 293T cells transiently transfected with pTGR5 or pGPR119 (GeneCopoeia, USA) were washed by FBS-free DMEM, and stimulated with WB403 in FBS-free DMEM containing 3-isobutyl-1-methyl-xanthine (IBMX, Sigma). Cell lysates were collected 30 min later and used for cAMP ELISA assay. FLIPR Calcium 5 assay kit (Molecular Devices, USA) was used for calcium mobilization assay. 293-GPR40 stable cells (kindly provided by Prof. Naiming Zhou of Zhejiang University, Hanzhou, China) or 293 cells transient transfected with GPR120 were seeded at 50,000 cells per well in black-walled clear-bottomed 96-well plates (Costar). An equal volume of loading buffer containing Fluo 4-AM was added the following day and cells were incubated for 1 h before stimulated with compounds. Increase of the intracellular Ca^2+ concentration was monitored by Flexstation 3 system (Molecular Devices, USA).
(§4) Fig 6 Effect of WB403 on GPCRs related to GLP-1 secretion. (A) GPCR expression in human NCI-H716 and mouse MIN6 cells. […]

[5] = molecular target: T2, hGPR120 (Homo sapiens, UniProt Q5NUL3); test: GPR120-dependent calcium mobilization in transfected 293 cells; assay type: cell-based; details: 10 or 100 μmol/l
T2 construct: expressed in transfected cells; host or cells: 293 cells, transient transfection with a human GPR120 expression vector
T2 sequence (Q5NUL3 1-361): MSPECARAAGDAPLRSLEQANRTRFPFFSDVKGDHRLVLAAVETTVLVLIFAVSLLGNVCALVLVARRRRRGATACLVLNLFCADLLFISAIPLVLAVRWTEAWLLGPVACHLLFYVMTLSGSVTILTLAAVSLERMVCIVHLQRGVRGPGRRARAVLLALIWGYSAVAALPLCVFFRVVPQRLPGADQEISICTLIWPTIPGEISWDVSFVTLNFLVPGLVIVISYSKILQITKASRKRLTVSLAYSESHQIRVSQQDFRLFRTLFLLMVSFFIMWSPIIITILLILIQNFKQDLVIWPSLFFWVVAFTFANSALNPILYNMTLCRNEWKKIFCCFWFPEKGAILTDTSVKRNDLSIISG
Method: as §3, §4

T1 sequence (O14842 whole entry): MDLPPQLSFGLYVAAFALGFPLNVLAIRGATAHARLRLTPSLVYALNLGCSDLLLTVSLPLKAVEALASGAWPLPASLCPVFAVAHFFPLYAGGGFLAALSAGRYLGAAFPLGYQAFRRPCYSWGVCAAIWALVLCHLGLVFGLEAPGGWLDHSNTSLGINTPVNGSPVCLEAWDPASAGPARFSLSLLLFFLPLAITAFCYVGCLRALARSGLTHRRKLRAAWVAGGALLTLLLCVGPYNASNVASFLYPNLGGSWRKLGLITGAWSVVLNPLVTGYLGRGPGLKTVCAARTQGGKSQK

`CCc1cc(-c2nc(C)c(COCc3ccc(Br)cc3)s2)ccn1` [WB403, 4-(5-((4-bromobenzyloxy)-methyl)-4-methylthiazol-2-yl)-2-ethylpyridine] was tested, and the gallbladder filling [1] was “did not”, the “islet area vs vehicle” value ([2]; H&E, after 4-week treatment) was “bigger islet area as compared to the vehicle mice, though no significant difference was found” and the “α-cell and β-cell distribution in islets” value ([2]; IHC anti-insulin / anti-glucagon) was “significantly reduced α-cell in the islet core area and restored the normal cell distribution pattern”. For the same compound, the islet area [3] was “restored islet area but did not expand it beyond that of normal mice”, the “hGPR40-Ca2+ activation (calcium mobilization)” value [4] was “neither did it exhibit significant effect; also recorded: no significant effect” and the “hGPR120-Ca2+ activation (calcium mobilization)” value [5] was “neither did it exhibit significant effect; also recorded: no significant effect”.
